The values below come from ChEMBL document CHEMBL1201862, “PubChem BioAssay data set” (2004).

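How tested: cells in 96-well plates exposed to compound for 48 hours at five concentrations. Here, GI50 denotes the concentration required for 50% inhibition of growth.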 Calls of active or inactive are those of the source. Cut-off read from the data, not from the text of the source: active = GI50 up to about 1.1 µM and inactive = higher. Some results are limits rather than exact numbers.

Among the test systems are HCT-15; SNB-19; MCF7; A498; Malme-3M; HT-29; ACHN; SK-MEL-2; A549; NCI/ADR-RES; SK-OV-3; HCC 2998; COLO 205; DU-145; HOP-62; SW-620; HL-60; IGROV-1; UO-31; SK-MEL-28.
Holding throughout (experiment): inhibition of tumour cell growth, NCI panel, 48 h

In the case of `C=C1CCCCCCCCCCC12SCCC2CCCCSC` (stereo not given), the GI50 was 26 µM with HCT-15; 21.8 µM (inactive) in the assay on SNB-19; 21 µM (inactive) with MCF7; 20.8 µM (inactive) in the assay on A498; 19.7 µM (inactive) in the assay on Malme-3M; 22.3 µM (inactive) with HT-29. Moreover, the GI50 in the assay on ACHN was 20.3 µM (inactive); in the assay with SK-MEL-2, 17.5 µM (inactive); in the assay with A549 it was 34.3 µM (inactive); with NCI/ADR-RES it was 20.8 µM (inactive); in the assay on SK-OV-3 it was 47.3 µM (inactive); with HCC 2998, 21.4 µM (inactive). Moreover, the GI50 in the assay on COLO 205 was 19 µM (inactive); in the assay with DU-145 it was 40.6 µM (inactive); with HOP-62, 20 µM (inactive); in the assay on SW-620 it was 20.3 µM (inactive); in the assay on HL-60, 26.5 µM (inactive); in the assay with IGROV-1, 22.5 µM (inactive). The GI50 with UO-31 was 35 µM (inactive); in the assay on SK-MEL-28 it was 26.5 µM (inactive).

On to `Cc1ccc(S(=O)(=O)N[C@@H](Cc2ccccc2)C(=O)CCl)cc1` [TPCK], for which the GI50 is 16 µM in the assay with HCT-15; 16.9 µM (inactive) in the assay on SNB-19; 10.5 µM (inactive) in the assay with MCF7; 17.8 µM (inactive) with A498; 14.6 µM (inactive) with Malme-3M; 14.9 µM (inactive) in the assay on HT-29. Further, the GI50 with ACHN was 16.5 µM (inactive); in the assay with SK-MEL-2, 12.9 µM (inactive); in the assay on A549, 15.7 µM (inactive); in the assay with NCI/ADR-RES, 19.9 µM (inactive); with SK-OV-3, 24.2 µM (inactive); with HCC 2998, 13.9 µM (inactive). For the same compound, the GI50 in the assay on COLO 205 was 17.5 µM (inactive); with DU-145, 17.7 µM (inactive); with HOP-62, 17.3 µM (inactive); with SW-620 it was 11.5 µM (inactive); in the assay with HL-60, 4.66 µM (inactive); in the assay with IGROV-1, 14.9 µM (inactive). Also, the GI50 with UO-31 was 14.1 µM (inactive); with SK-MEL-28, 18.6 µM (inactive).

Regarding `CC(C)NC(=O)OCc1c(COC(=O)NC(C)C)c(-c2cc[n+](COC(=O)C(C)(C)C)cc2)n2c1CCC2`, the GI50 is greater than 100 µM in the assay on HCT-15; > 100 µM (inactive) with SNB-19; > 100 µM (inactive) with MCF7; > 100 µM (inactive) in the assay on A498; > 100 µM (inactive) in the assay on Malme-3M; > 100 µM (inactive) in the assay on HT-29. Further, the GI50 is 61.9 µM (inactive) in the assay with ACHN; > 100 µM (inactive) in the assay on SK-MEL-2; > 100 µM (inactive) in the assay with A549; > 100 µM (inactive) in the assay with NCI/ADR-RES; > 100 µM (inactive) in the assay with SK-OV-3; > 100 µM (inactive) in the assay with HCC 2998. In addition, the GI50 in the assay on COLO 205, in the assay on DU-145, with HOP-62, in the assay with SW-620, in the assay with HL-60 and with IGROV-1 was > 100 µM (inactive) each time. Further, the GI50 in the assay with UO-31 and in the assay on SK-MEL-28 was > 100 µM (inactive) throughout.

In the case of `CCCCc1c2c(nc3c1CCC/C3=C\c1ccccc1)C(=O)C(CN(C)C)CC2` (stereo not given), the GI50 in the assay with HCT-15 is 8.97 µM; in the assay with SNB-19 it was 18.3 µM (inactive); in the assay on MCF7 it was 3.37 µM (inactive); with A498, 18.7 µM (inactive); with Malme-3M it was 22.1 µM (inactive); in the assay on HT-29, 12.4 µM (inactive). In addition, the GI50 is 15.9 µM (inactive) in the assay with ACHN; 20.2 µM (inactive) in the assay on SK-MEL-2; 19.9 µM (inactive) with A549; 29.3 µM (inactive) in the assay with NCI/ADR-RES; 18.5 µM (inactive) in the assay on SK-OV-3; 28 µM (inactive) with HCC 2998. For the same compound, the GI50 in the assay on COLO 205 is 19.1 µM (inactive); with DU-145 it was 15.6 µM (inactive); in the assay on HOP-62, 16.5 µM (inactive); in the assay on SW-620 it was 10.4 µM (inactive); in the assay with HL-60, 2.67 µM (inactive); with IGROV-1, 18.3 µM (inactive). The GI50 with UO-31 is 18.9 µM (inactive); in the assay on SK-MEL-28, 14.8 µM (inactive).

For `CC(C)[Si]1(C(C)C)OCC2OC(n3ccc(=O)[nH]c3=O)C([Se]c3ccccc3)C2O[Si](C(C)C)(C(C)C)O1` (stereo not given), the GI50 in the assay with HCT-15 is 4.39 µM; with SNB-19 it was 0.261 µM (active); in the assay with MCF7, 2.75 µM (inactive); in the assay on A498, 7.87 µM (inactive); in the assay with Malme-3M it was 2.81 µM (inactive); with HT-29 it was 1.66 µM (inactive). The GI50 with ACHN was 2.61 µM (inactive); in the assay on SK-MEL-2 it was 6.79 µM (inactive); in the assay with A549 it was 9.46 µM (inactive); in the assay on NCI/ADR-RES it was 11.2 µM (inactive); in the assay on SK-OV-3, 16.5 µM (inactive); in the assay on HCC 2998 it was 1.58 µM (inactive). For the same compound, the GI50 is 4.86 µM (inactive) in the assay with COLO 205; 12.2 µM (inactive) with DU-145; 12.3 µM (inactive) in the assay on HOP-62; 2.32 µM (inactive) in the assay on SW-620; 5.89 µM (inactive) with HL-60; 2.44 µM (inactive) in the assay on IGROV-1. Further, the GI50 is 8.77 µM (inactive) in the assay on UO-31 and 3.59 µM (inactive) in the assay on SK-MEL-28.

With `CC1(C)[C@H]2Cc3cc(-c4cc5c(cn4)[C@@H]4C[C@H]([C@@H]5[C@@H]5c6cc(-c7cc8c(cn7)[C@@H]7C[C@H](C8)C7(C)C)ncc6[C@@H]6C[C@H]5C6(C)C)C4(C)C)ncc3[C@@H]1C2`, the GI50 in the assay on HCT-15 was greater than 100 µM; in the assay with SNB-19, > 100 µM (inactive); in the assay on MCF7, > 100 µM (inactive); in the assay with A498, > 100 µM (inactive); with Malme-3M, > 100 µM (inactive); in the assay on HT-29, > 100 µM (inactive). For the same compound, the GI50 with ACHN was > 100 µM (inactive); in the assay on SK-MEL-2, > 100 µM (inactive); in the assay with A549 it was > 100 µM (inactive); with NCI/ADR-RES, > 100 µM (inactive); in the assay with SK-OV-3, > 100 µM (inactive); in the assay with HCC 2998, 76.7 µM (inactive). Moreover, the GI50 with COLO 205, in the assay on DU-145, in the assay on HOP-62, in the assay with SW-620, in the assay with HL-60 and in the assay on IGROV-1 was > 100 µM (inactive) each time. Moreover, the GI50 with UO-31 and in the assay with SK-MEL-28 was > 100 µM (inactive) throughout.

Consider `CCOC(=O)/C=C(\C(=O)OCC)n1cnc2c(N)ncnc21`, for which the GI50 is 3.08 µM with HCT-15; 16.1 µM (inactive) in the assay with SNB-19; 2.64 µM (inactive) in the assay with MCF7; 13.2 µM (inactive) in the assay on A498; 4.29 µM (inactive) with Malme-3M; 6.68 µM (inactive) in the assay with HT-29. Moreover, the GI50 with ACHN was 6.67 µM (inactive); with SK-MEL-2, 16.8 µM (inactive); in the assay on A549 it was 17.1 µM (inactive); in the assay on NCI/ADR-RES, 17.2 µM (inactive); in the assay on SK-OV-3 it was 17.7 µM (inactive); in the assay with HCC 2998 it was 16 µM (inactive). Further, the GI50 is 1.99 µM (inactive) with COLO 205; 15.6 µM (inactive) in the assay with DU-145; 22.6 µM (inactive) in the assay with HOP-62; 2.74 µM (inactive) with SW-620; 0.931 µM (active) in the assay on HL-60; 10.8 µM (inactive) with IGROV-1. For the same compound, the GI50 in the assay with UO-31 was 16.5 µM (inactive); in the assay on SK-MEL-28, 13.6 µM (inactive).
